According to US12195479B2, “Five- and six-membered compound, and preparation method therefor and pharmaceutical composition and use thereof” (HANGZHOU POLYMED BIOPHARMACEUTICALS, INC., priority 2021, dated 2025):
pIC50: −log10 of the molar value.

Assays:
FLT3 kinase = biological target: T1, FLT3 kinase (Homo sapiens, UniProt P36888); test: Kinase inhibition, fluorescence microfluidic mobility shift assay (FLT3); assay type: biochemical; details: substrate peptide FAM-P2 3 μM, ATP 97 μM; one hour at 28° C.; assayed in duplicate
T1 sequence (P36888 564-993): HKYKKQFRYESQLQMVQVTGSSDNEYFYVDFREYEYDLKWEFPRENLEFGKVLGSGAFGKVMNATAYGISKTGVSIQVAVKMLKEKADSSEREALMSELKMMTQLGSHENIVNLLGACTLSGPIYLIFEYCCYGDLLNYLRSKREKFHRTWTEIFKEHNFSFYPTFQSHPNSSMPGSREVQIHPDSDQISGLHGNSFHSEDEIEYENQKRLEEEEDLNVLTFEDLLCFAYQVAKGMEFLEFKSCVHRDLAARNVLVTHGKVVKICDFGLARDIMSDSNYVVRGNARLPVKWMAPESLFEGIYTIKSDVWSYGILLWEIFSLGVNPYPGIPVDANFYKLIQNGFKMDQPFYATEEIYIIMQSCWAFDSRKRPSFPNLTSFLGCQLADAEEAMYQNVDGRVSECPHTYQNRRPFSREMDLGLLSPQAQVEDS
Procedure: Based on the experimental method of fluorescence microfluidic mobility shift assay, the IC50 value of the compound for competitive binding of ATP to kinases IRAK4 and FLT3 was determined. The initial detection concentration of the compound was 10 μM, which was diluted to 0.38 nM with a 4-fold gradient and assayed in duplicate. In this case, commercially available staurosporine was the standard control for the assay.
Information on reagents and consumables is as follows: • IRAK4 kinase (Carna, Cat. No. 09-145, Lot. No. 14CBS-0020 H) • FLT3 kinase (Carna, Cat. No. 08-154, Lot. No. 07CBS-2350) • Substrate peptide FAM-P2 (GL Biochem, Cat. No. 112394, Lot. No. P131014-XP112394) • Substrate peptide FAM-P8 (GL Biochem, Cat. No. 112396, Lot. No. P170731-SY112396) • ATP (adenosine triphosphate, Sigma, Cat. No. A7699-1G, CAS No. 987-65-5) • DMSO (dimethyl sulfoxide, Sigma, Cat. No. D2650) • EDTA (ethylenediaminetetraacetic acid, Sigma, Cat. No. E5134, CAS No. 60-00-4) • Staurosporine (Selleckchem, Cat. No. 51421) • HEPES (4-(2-Hydroxyethyl)-1-piperazineethanesulfonic acid, Gibco, Cat. No. 15630-080) • Brij-35 solution (Polyoxyethylene lauryl ether, Sigma, Cat. No. B41840-100 mL) • DTT (dithiothreitol, Sigma, Cat. No. D0632-20G) • 0.2% Coating Reagent #3 (0.2% coating reagent, Perkin Elmer, Cat. No. 760050) • 96-well plate (Corning, Cat. No. 3365) • 384-well plate (Corning, Cat. No. 3573) Experimental operation method: • 1) FLT3 and IRAK4 kinases were dissolved in the kinase buffer (50 mM HEPES pH 7.5, 10 mM MgCl2, 2 mM DTT, and 0.01% Brij-35) at final concentrations of 0.9 nM, 30 nM, and 6 nM, respectively. • 2) The substrate peptide FAM-P2 and the substrate peptide FAM-P8, together with ATP, were dissolved in the above kinase buffer, respectively, where the final concentrations of the substrate peptide FAM-P2 and ATP for the determination of FLT3 were 3 μM and 97 μM, respectively; and the final concentrations of the substrate peptide FAM-P8 and ATP for the determination of IRAK4 were 3 μM and 10 μM, respectively. • 3) Compound dilution: The compound was first diluted to 50 μM, and then diluted downward with DMSO in a 4-fold gradient. In this case, the solution without compound and kinase served as the blank control, corresponding to the “minimum value” shown below; the solution without compound but containing kinase, adenosine triphosphate, DMSO, and the buffer served as the positive control, corresponding to the “maximum value” shown below. • 4) Kinase reaction and termination: 10 μL of the kinase buffer was added to a 384-well plate containing 5 μL of the compound to be tested, and the mixture was incubated for 10 minutes at room temperature; another 10 μL, of buffer containing the substrate peptide and adenosine triphosphate was added to the 384-well plate, and after incubation for one hour at 28° C., 25 μL, of termination solution (100 mM HEPES pH 7.5, 50 mM EDTA, 0.2% Coating Reagent #3, and 0.015% Brij-35) was added to each well for reaction termination. • 5) Data reading: CaliperEZ Reader II instrument was used to read the conversion rate data. Setting conditions: downstream voltage as −500 V, upstream voltage as −2250 V, base pressure as −0.5 PSI, and screening pressure as −1.2 PSI. • 6) Data calculation: the conversion rate data was copied from CaliperEZ Reader II, and the conversion rate was converted into inhibition rate data.

IRAK4 kinase = biological target: T2, IRAK4 kinase (Homo sapiens, UniProt Q9NWZ3); test: Kinase inhibition, fluorescence microfluidic mobility shift assay (IRAK4); assay type: biochemical; details: substrate peptide FAM-P8 3 μM, ATP 10 μM; one hour at 28° C.; assayed in duplicate
T2 sequence (Q9NWZ3 1-460): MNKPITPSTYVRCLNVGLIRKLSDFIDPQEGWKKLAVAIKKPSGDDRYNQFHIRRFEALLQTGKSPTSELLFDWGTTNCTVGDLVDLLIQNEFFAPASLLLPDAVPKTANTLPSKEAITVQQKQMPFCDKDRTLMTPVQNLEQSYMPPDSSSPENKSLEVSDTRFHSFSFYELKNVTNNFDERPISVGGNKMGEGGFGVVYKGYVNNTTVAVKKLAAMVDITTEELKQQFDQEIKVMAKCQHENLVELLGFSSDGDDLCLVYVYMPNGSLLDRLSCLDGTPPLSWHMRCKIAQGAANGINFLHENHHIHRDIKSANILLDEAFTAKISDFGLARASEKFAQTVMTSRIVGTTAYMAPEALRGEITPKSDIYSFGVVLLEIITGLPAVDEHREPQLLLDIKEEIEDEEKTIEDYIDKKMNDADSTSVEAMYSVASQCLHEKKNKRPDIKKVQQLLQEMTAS

MV4-11 cells = test: Cytotoxicity against MV4-11 cells (CellTiter-Glo); assay type: cell-based; details: Homo sapiens, incubated for 72 hours, CellTiter-Glo chemiluminescence
Procedure: Determination of the IC50 Value of the Compound's Cytotoxicity Against MV4-11 Cells
MV-4-11 cells were cultured with IMDM complete medium (IMDM+10% fetal bovine serum+1% Penicillin-Streptomycin, a mixture of penicillin-streptomycin). • 2. MV-4-11 cells in good condition were collected and washed twice with DPBS ([…] phosphate buffered saline solution). • 3. MV-4-11 cells were resuspended with IMDM complete medium, the cell density was adjusted to 1.11×10^6 cells/mL, and the MV-4-11 cells were added to 96-well plates at 90 μL per well. • 4. A compound solution with 10-fold concentration was prepared with IMDM complete medium, 10 μL of the compound solution with 10-fold concentration was added to the cells in the 96-well plate, mixed well, and then the 96-well plate was placed in a 5% CO2 incubator at 37° C. and incubated for 72 hours. • 5. After the incubation, the 96-well plate was taken out and equilibrated for 30 minutes at room temperature. Then 100 μL of CellTiter Glo reagent was added to each well and mixed on a horizontal shaker for 2 minutes. • 6. The 96-well plate was removed, equilibrated at room temperature for 10 minutes, and the chemiluminescence value was detected on a microplate reader.

| pIC50 (FLT3 kinase) | pIC50 (IRAK4 kinase) | SMILES | pIC50 (MV4-11 cells) |
| --- | --- | --- | --- |
| 8.40 | 8.26 | [2H]C([2H])([2H])C(O)(CCn1cc2cc(NC(=O)c3coc(-c4ccnc(C(F)(F)F)c4)n3)c(C(C)(C)O)cc2n1)C([2H])([2H])[2H] [II-117] | 7.63 |
| 8.46 | 8.04 | CC(C)(O)c1cc2nn(C3CCOCC3)cc2cc1NC(=O)c1coc(-c2ccnc(C(F)(F)F)c2)n1 [II-121] | 7.48 |
| 8.21 | 7.85 | Cc1cc(-c2nc(C(=O)Nc3cc4oc(N5CCOCC5)nc4nc3C(C)(C)O)co2)ccn1 [II-122] | 7.48 |
| 9.51 | 8.32 | Cc1cc(-c2nc(C(=O)Nc3cc4sc(N5CCOCC5)nc4nc3C(C)(C)O)co2)ccn1 [II-124] | 8.30 |
| 7.96 | 7.24 | Cc1cc(-c2nc(C(=O)Nc3cc4oc(N5CCC(F)(F)CC5)nc4nc3N3CCC(O)C3)co2)ccn1 (stereo not drawn) [II-129] | 7.30 |
| 9.46 | 8.14 | Cc1cc(-c2nc(C(=O)Nc3cc4oc(N5CCOCC5)nc4cc3N3CCC(O)C3)co2)ccn1 (stereo not drawn) [II-132] | 8.92 |
| 9.59 | 8.32 | Cc1cc(-c2nc(C(=O)Nc3cc4sc(N5CCOCC5)nc4cc3N3CCC(O)C3)co2)ccn1 (stereo not drawn) [II-133] | 9.70 |

The next lines start with the compound.

| SMILES | pIC50 (FLT3 kinase) | pIC50 (IRAK4 kinase) | pIC50 (MV4-11 cells) |
| --- | --- | --- | --- |
| Cc1cc(-c2nc(C(=O)Nc3cc4cn(CC5(F)CNC5)nc4cc3C(C)(C)O)co2)ccn1 [II-108] | 9.54 | 7.93 | 7.66 |
| [2H]C([2H])([2H])C(O)(c1cc2nn(CCC(C)(C)O)cc2cc1NC(=O)c1coc(-c2ccnc(C(F)(F)F)c2)n1)C([2H])([2H])[2H] [II-109] | 8.38 | 8.19 | 7.82 |
| Cc1cc(-c2nc(C(=O)Nc3cc4cn(CCC(C)(C)O)nc4cc3C(C)(O)C(F)(F)F)co2)ccn1 (stereo not drawn) [II-111] | 9.38 | 8.31 | 9.10 |
| CC(C)(O)c1cc2nn([C@H]3CC[C@@H](O)CC3)cc2cc1NC(=O)c1coc(-c2ccnc(C(F)(F)F)c2)n1 [II-112] | 8.55 | 8.16 | 7.92 |
| CC(C)N1CCC(n2cc3cc(NC(=O)c4coc(-c5ccnc(C(F)(F)F)c5)n4)c(C(C)(C)O)cc3n2)CC1 [II-113F] | 9.42 | 8.34 | 8.22 |
| Cc1cc(-c2nc(C(=O)Nc3cc4cn(C5CC6CCC(C5)O6)nc4cc3C(C)(C)O)co2)ccn1 (stereo not drawn) [II-114] | 9.59 | 8.23 | 8.89 |
| Cc1cc(-c2nc(C(=O)Nc3cc4cn(CC5(F)COC5)nc4cc3C(C)(C)O)co2)ccn1 [II-115] | 9.60 | 7.96 | 8.60 |
| CC(C)(O)c1cc2nn(C3CC4CCC(C3)N4)cc2cc1NC(=O)c1coc(-c2ccnc(C(F)(F)F)c2)n1 (stereo not drawn) [II-118] | 9.36 | 7.91 | 8.21 |
